The results in this text go back to patent US12252524B2, “GIP/GLP1 co-agonist compounds” (Eli Lilly and Company, priority 2018, dated 2025).

Structures are written as SMILES. Numbered stars: 1 amine (or outer) side, 2 acyl side, 3 side chain; on linkers, the order of the positions; unused ones are H or OH. Square brackets hold non-standard residues; d marks the D form. Side chains are listed from the residue outwards. Peptide text beside a SMILES is read from it. * marks the point of attachment. C20 diacid = O=C(O)CCCCCCCCCCCCCCCCCCC(=O)*; C18 diacid = O=C(O)CCCCCCCCCCCCCCCCC(=O)*; αMePhe(2-F) = C[C@](N)(Cc1ccccc1F)C(=O)O; γGlu = O=C(O)[C@H](CCC(=O)[*:2])N[*:1]; Nle = CCCC[C@H](N)C(=O)O; Orn = NCCC[C@H](N)C(=O)O; AEEA = NCCOCCOCC(=O)O; Aib = CC(C)(N)C(=O)O

The target in one assay is T1, human Gcg receptor (Homo sapiens, UniProt P47871).
T1 construct: expressed in transfected cells; crude membranes
Put plainly: [125I]-Glucagon binding (SPA), human Gcg receptor. The conditions noted are these: read-out: hGLcgR Ki, nM (SEM, n). The method, boiled down:
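Cell pellets were lysed in hypotonic Tris buffer, pH 7.5, homogenized, and spun at low then high speed to give crude membranes. Ki was derived from the fitted IC50.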

Another assay has as its target T2, human GIP receptor (Homo sapiens, UniProt P48546).
T2 construct: expressed in transfected cells; crude membranes
T2 sequence (P48546 22-466): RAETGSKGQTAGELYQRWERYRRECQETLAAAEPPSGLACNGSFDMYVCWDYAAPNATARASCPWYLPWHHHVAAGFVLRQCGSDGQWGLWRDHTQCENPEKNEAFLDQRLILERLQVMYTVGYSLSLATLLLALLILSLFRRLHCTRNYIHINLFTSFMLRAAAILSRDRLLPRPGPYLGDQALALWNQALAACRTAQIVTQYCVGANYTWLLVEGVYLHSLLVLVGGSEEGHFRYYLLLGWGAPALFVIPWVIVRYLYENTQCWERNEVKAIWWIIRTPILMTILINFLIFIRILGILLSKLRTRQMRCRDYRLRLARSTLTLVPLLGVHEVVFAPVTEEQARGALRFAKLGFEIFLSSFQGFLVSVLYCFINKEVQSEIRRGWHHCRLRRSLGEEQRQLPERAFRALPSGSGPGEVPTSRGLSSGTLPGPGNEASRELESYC
Put plainly: [125I]-GIP binding (SPA), human GIP receptor. The conditions noted are these: read-out: hGIPR Ki, nM (SEM, n).

The target of assay [1] is human GLP-1 receptor (GLP-1R) (Homo sapiens, UniProt P43220). Put plainly: cAMP pharmacological functional assay in presence of casein, hGLP-1R. The conditions noted are these: HEK293 cells expressing hGLP-1R, 0.1% Casein, geometric mean; read-out: hGLP1R cAMP Rel EC50 nM (SEM, n). It counts as cell-based.
The target in assay [2] is T3, gastric inhibitory peptide receptor (GIPR) (Homo sapiens, UniProt P48546).
T3 sequence (P48546 22-466): T2 sequence (P48546 22-466)
Put plainly: cAMP pharmacological functional assay in presence of casein, hGIPR. The class given is cell-based. Conditions: HEK293 cells expressing hGIPR, 0.1% Casein, geometric mean; read-out: hGIPR cAMP Rel EC50 nM (SEM, n).

Another assay has as its target human GLP-1R (Homo sapiens, UniProt P43220). Put plainly: [125I]-GLP-1 binding (SPA), human GLP-1 receptor. Set-up: expressed in transfected cells; crude membranes. Conditions: read-out: hGLP1R Ki, (nM) (SEM, n). Put shortly:
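Crude-membrane binding assay; one membrane prep included 1 mM MgCl2 and 25 units/ml DNAse I during lysis. Assay buffer at pH 7.4 contains 0.1% (w/v) bacitracin and 0.003% (w/v) TWEEN-20. Ki is reported as geometric mean.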

Chain of human GLP-1 receptor (GLP-1R) (P43220 24-463): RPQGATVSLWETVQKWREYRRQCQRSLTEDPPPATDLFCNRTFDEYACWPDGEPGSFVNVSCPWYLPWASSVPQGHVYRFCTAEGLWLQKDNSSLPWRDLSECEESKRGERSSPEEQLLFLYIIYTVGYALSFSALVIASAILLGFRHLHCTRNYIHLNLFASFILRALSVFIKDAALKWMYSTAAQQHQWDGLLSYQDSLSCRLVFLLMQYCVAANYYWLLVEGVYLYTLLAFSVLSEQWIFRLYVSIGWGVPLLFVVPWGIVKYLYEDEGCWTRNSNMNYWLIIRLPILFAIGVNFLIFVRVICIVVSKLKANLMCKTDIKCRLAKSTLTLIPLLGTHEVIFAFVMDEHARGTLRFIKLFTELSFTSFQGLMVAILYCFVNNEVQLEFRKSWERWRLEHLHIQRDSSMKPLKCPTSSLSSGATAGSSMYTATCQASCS
Chain of human GLP-1R (P43220 24-463): as above
T1 sequence (P47871 26-477): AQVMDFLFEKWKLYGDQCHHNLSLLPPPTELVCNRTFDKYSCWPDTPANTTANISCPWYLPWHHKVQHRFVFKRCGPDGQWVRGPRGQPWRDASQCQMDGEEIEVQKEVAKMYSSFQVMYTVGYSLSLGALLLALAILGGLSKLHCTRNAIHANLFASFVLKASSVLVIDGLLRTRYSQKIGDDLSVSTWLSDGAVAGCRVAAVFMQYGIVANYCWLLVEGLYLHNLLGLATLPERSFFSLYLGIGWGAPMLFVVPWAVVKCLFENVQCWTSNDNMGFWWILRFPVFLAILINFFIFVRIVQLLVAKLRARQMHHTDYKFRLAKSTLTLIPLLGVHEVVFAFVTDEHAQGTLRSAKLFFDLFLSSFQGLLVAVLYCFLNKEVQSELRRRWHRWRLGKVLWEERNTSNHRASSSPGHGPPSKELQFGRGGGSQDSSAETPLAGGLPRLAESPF

`CC[C@H](C)[C@H](NC(=O)[C@H](CC(C)C)NC(=O)[C@H](Cc1ccc(O)cc1)NC(=O)[C@@H](CCC(=O)O)NC(=O)[C@@H](NC(=O)[C@H](Cc1ccccc1)NC(=O)[C@H](CCC(=O)O)NC(=O)C(C)(C)NC(=O)[C@H](CCC(N)=O)NC(=O)[C@H](C)NC(=O)[C@H](CCCCNC(=O)COCCOCCNC(=O)COCCOCCNC(=O)CC[C@H](NC(=O)CCCCCCCCCCCCCCCCC(=O)O)C(=O)O)NC(=O)[C@H](CCCN)NC(=O)[C@H](CC(=O)O)NC(=O)[C@H](CC(C)C)NC(=O)C(C)(C)NC(=O)[C@@H](NC(=O)[C@H](CO)NC(=O)[C@H](Cc1ccc(O)cc1)NC(=O)[C@H](CC(=O)O)NC(=O)[C@H](CO)NC(=O)[C@@H](NC(=O)C(C)(Cc1ccccc1F)NC(=O)[C@@H](NC(=O)CNC(=O)[C@H](CCC(=O)O)NC(=O)C(C)(C)NC(=O)[C@@H](N)Cc1ccc(O)cc1)[C@@H](C)O)[C@@H](C)O)[C@@H](C)CC)[C@@H](C)CC)C(=O)N[C@@H](CCC(=O)O)C(=O)NCC(=O)NCC(=O)N1CCC[C@H]1C(=O)N[C@@H](CO)C(=O)N[C@@H](CO)C(=O)NCC(=O)N[C@@H](C)C(=O)N1CCC[C@H]1C(=O)N1CCC[C@H]1C(=O)N1CCC[C@H]1C(=O)N[C@@H](CO)C(N)=O` (stereo partly shown) [Example 247]: the Ki at human Gcg receptor is greater than 1100 nM; on human GIP receptor, greater than 55.1 nM; at human GLP-1R it was 4.39 nM. The results for the concentration giving a half-maximal response (EC50) in assay [1] and in assay [2] were 0.0491 nM and 0.0622 nM, respectively.

With `CC[C@H](C)[C@H](NC(=O)[C@H](CC(C)C)NC(=O)[C@H](Cc1ccc(O)cc1)NC(=O)[C@@H](CCC(=O)O)NC(=O)[C@@H](NC(=O)[C@H](Cc1ccccc1)NC(=O)[C@H](CCC(=O)O)NC(=O)C(C)(C)NC(=O)[C@H](CCC(N)=O)NC(=O)[C@H](C)NC(=O)[C@H](CCCCNC(=O)COCCOCCNC(=O)COCCOCCNC(=O)CC[C@H](NC(=O)CCCCCCCCCCCCCCCCC(=O)O)C(=O)O)NC(=O)[C@H](CCCN)NC(=O)[C@H](CC(=O)O)NC(=O)[C@H](CC(C)C)NC(=O)[C@H](CC(C)C)NC(=O)[C@@H](NC(=O)[C@H](CO)NC(=O)[C@H](Cc1ccc(O)cc1)NC(=O)[C@H](CC(=O)O)NC(=O)[C@H](CO)NC(=O)[C@@H](NC(=O)[C@](C)(Cc1ccccc1F)NC(=O)[C@@H](NC(=O)CNC(=O)[C@H](CCC(=O)O)NC(=O)C(C)(C)NC(=O)[C@@H](N)Cc1ccc(O)cc1)[C@@H](C)O)[C@@H](C)O)[C@@H](C)CC)[C@@H](C)CC)C(=O)N[C@@H](CCC(=O)O)C(=O)NCC(=O)NCC(=O)N1CCC[C@H]1C(=O)N[C@@H](CO)C(=O)N[C@@H](CO)C(=O)NCC(=O)N[C@@H](C)C(=O)N1CCC[C@H]1C(=O)N1CCC[C@H]1C(=O)N1CCC[C@H]1C(=O)N[C@@H](CO)C(N)=O` [Example 248] (H-Y[Aib]EGT[αMePhe(2-F)]TSDYSILLD[Orn]K([AEEA-AEEA-γGlu-C18 diacid])AQ[Aib]EFI[dE]YLIEGGPSSGAPPPS-NH2), the Ki on human Gcg receptor is greater than 1050 nM; at human GIP receptor, 0.0397 nM; on human GLP-1R, 2.4 nM. The results for the EC50 in assay [1] and in assay [2] were 0.0428 nM and 0.0328 nM, respectively.

On to `CCCC[C@H](NC(=O)[C@@H](NC(=O)[C@H](CO)NC(=O)[C@H](Cc1ccc(O)cc1)NC(=O)[C@H](CC(=O)O)NC(=O)[C@H](CO)NC(=O)[C@@H](NC(=O)[C@](C)(Cc1ccccc1F)NC(=O)[C@@H](NC(=O)CNC(=O)[C@H](CCC(=O)O)NC(=O)C(C)(C)NC(=O)[C@@H](N)Cc1ccc(O)cc1)[C@@H](C)O)[C@@H](C)O)[C@@H](C)CC)C(=O)N[C@@H](CC(C)C)C(=O)N[C@@H](CC(=O)O)C(=O)N[C@@H](CCCN)C(=O)N[C@@H](CCCCNC(=O)COCCOCCNC(=O)COCCOCCNC(=O)CC[C@H](NC(=O)CCCCCCCCCCCCCCCCC(=O)O)C(=O)O)C(=O)N[C@@H](C)C(=O)N[C@@H](CCC(N)=O)C(=O)NC(C)(C)C(=O)N[C@@H](CCC(=O)O)C(=O)N[C@@H](Cc1ccccc1)C(=O)N[C@H](C(=O)N[C@H](CCC(=O)O)C(=O)N[C@@H](Cc1ccc(O)cc1)C(=O)N[C@@H](CC(C)C)C(=O)N[C@H](C(=O)N[C@@H](CCC(=O)O)C(=O)NCC(=O)NCC(=O)N1CCC[C@H]1C(=O)N[C@@H](CO)C(=O)N[C@@H](CO)C(=O)NCC(=O)N[C@@H](C)C(=O)N1CCC[C@H]1C(=O)N1CCC[C@H]1C(=O)N1CCC[C@H]1C(=O)N[C@@H](CO)C(N)=O)[C@@H](C)CC)[C@@H](C)CC` [Example 249] (H-Y[Aib]EGT[αMePhe(2-F)]TSDYSI[Nle]LD[Orn]K([AEEA-AEEA-γGlu-C18 diacid])AQ[Aib]EFI[dE]YLIEGGPSSGAPPPS-NH2), for which the Ki is greater than 1000 nM on human Gcg receptor, 0.0394 nM on human GIP receptor and 2.35 nM on human GLP-1R. The EC50 in assay [1] was 0.0446 nM; in assay [2], 0.0437 nM.

On to `CC[C@H](C)[C@H](NC(=O)[C@H](CC(C)C)NC(=O)[C@H](Cc1ccc(O)cc1)NC(=O)[C@@H](CCC(=O)O)NC(=O)[C@@H](NC(=O)[C@H](Cc1ccccc1)NC(=O)[C@H](CCC(=O)O)NC(=O)C(C)(C)NC(=O)[C@H](CCC(N)=O)NC(=O)[C@H](C)NC(=O)[C@H](CCCCNC(=O)COCCOCCNC(=O)COCCOCCNC(=O)CC[C@H](NC(=O)CCCCCCCCCCCCCCCCCCC(=O)O)C(=O)O)NC(=O)[C@H](CCCN)NC(=O)[C@H](CC(=O)O)NC(=O)[C@H](CC(C)C)NC(=O)C(C)(C)NC(=O)[C@@H](NC(=O)[C@H](CO)NC(=O)[C@H](Cc1ccc(O)cc1)NC(=O)[C@H](CC(=O)O)NC(=O)[C@H](CO)NC(=O)[C@@H](NC(=O)[C@](C)(Cc1ccccc1F)NC(=O)[C@@H](NC(=O)CNC(=O)[C@H](CCC(=O)O)NC(=O)C(C)(C)NC(=O)[C@@H](N)Cc1ccc(O)cc1)[C@@H](C)O)[C@@H](C)O)[C@@H](C)CC)[C@@H](C)CC)C(=O)N[C@@H](CCC(=O)O)C(=O)NCC(=O)NCC(=O)N1CCC[C@H]1C(=O)N[C@@H](CO)C(=O)N[C@@H](CO)C(=O)NCC(=O)N[C@@H](C)C(=O)N1CCC[C@H]1C(=O)N1CCC[C@H]1C(=O)N1CCC[C@H]1C(=O)N[C@@H](CO)C(N)=O` [Example 250] (H-Y[Aib]EGT[αMePhe(2-F)]TSDYSI[Aib]LD[Orn]K([AEEA-AEEA-γGlu-C20 diacid])AQ[Aib]EFI[dE]YLIEGGPSSGAPPPS-NH2), for which the Ki is 198 nM at human Gcg receptor, 0.0171 nM at human GIP receptor and 1.72 nM on human GLP-1R. Also, the EC50 in assay [1] was 0.0306 nM; in assay [2], 0.0376 nM.

With `CC[C@H](C)[C@H](NC(=O)[C@H](CC(C)C)NC(=O)C(C)(Cc1ccc(O)cc1)NC(=O)[C@@H](CCC(=O)O)NC(=O)[C@@H](NC(=O)[C@H](Cc1ccccc1)NC(=O)[C@H](C)NC(=O)C(C)(C)NC(=O)[C@H](CCC(N)=O)NC(=O)[C@H](C)NC(=O)[C@H](CCCCNC(=O)COCCOCCNC(=O)COCCOCCNC(=O)[C@@H](N)CCCCNC(=O)CCCCCCCCCCCCCCCCCCC(=O)O)NC(=O)[C@H](CCCN)NC(=O)[C@H](CC(=O)O)NC(=O)[C@H](CC(C)C)NC(=O)C(C)(CC(C)C)NC(=O)[C@@H](NC(=O)[C@H](CO)NC(=O)[C@H](Cc1ccncc1)NC(=O)[C@H](CC(=O)O)NC(=O)[C@H](CO)NC(=O)[C@@H](NC(=O)C(C)(Cc1ccccc1F)NC(=O)[C@@H](NC(=O)CNC(=O)[C@H](CCC(=O)O)NC(=O)C(C)(C)NC(=O)[C@@H](N)Cc1ccc(O)cc1)[C@@H](C)O)[C@@H](C)O)[C@@H](C)CC)[C@@H](C)CC)C(=O)N[C@@H](CCC(=O)O)C(=O)NCC(=O)NCC(=O)N1CCC[C@H]1C(=O)N[C@@H](CO)C(=O)N[C@@H](CO)C(=O)NCC(=O)N[C@@H](C)C(=O)N1CCC[C@H]1C(=O)N1CCC[C@H]1C(=O)N1CCC[C@H]1C(=O)N[C@@H](CO)C(N)=O` (stereo partly shown) [Example 251], the Ki at human Gcg receptor worked out at 21.2 nM; on human GIP receptor it was 0.0249 nM; on human GLP-1R it was 1.09 nM. The EC50 in assay [1] is 0.081 nM; in assay [2], 0.0292 nM.
